The values that follow come from patent US12521439B2, “Methods and materials for modulating Nrf2 pathway” (The General Hospital Corporation, priority 2019, dated 2026).

Entries after “also recorded” stand apart in the source; their conditions may differ. Structures can show the parent of a compound that is named as a salt.

The test system of data set [1] is U87 glioma cells. The data set is described as follows: Cell viability (CellTiter-Glo), U87. The data set is classed as cell-based, human. To be noted: for U87 cell viability: same doses as ARE test, FIG. 12D. The procedure:
Cell culture: MDA-MB-231 and U87 (U87-MG) cells were obtained from the American Type Culture Collection (ATCC). 293T human embryonic kidney fibroblasts were provided by Dr. Xandra Breakefield (Massachusetts General Hospital). All three cell lines were grown in Dulbecco's modified Eagle medium supplemented with 10% fetal bovine serum (Gemini Bio-products), 100 U penicillin, and 0.1 mg/mL streptomycin (Sigma). All cells were maintained at 37° C. in a humidified 5% CO2 incubator. GSCs were obtained from tumor tissues of GBM patients following surgical resection, under approval from the corresponding Institutional Review Board. These cells have been previously characterized (ref. 37-39) and were maintained in culture as neurospheres in Neurobasal medium (Gibco) supplemented with heparin (2 μg/mL; Sigma) and recombinant EGF (20 ng/mL) and bFGF-2 (10 ng/mL; Peprotech). Human Astrocytes were obtained from ScienCell and cultured in Astrocytes Medium (ScienCell)
(§1) Cell viability: Cells were plated in 96-well plates and treated with the corresponding compounds. Cell viability was measured by adding 25 μl/well of CellTiter-Glo (Promega) followed by 10 minutes incubation and transfer to a white 96-well plate. Bioluminescence was quantified using Synergy HTX multimode reader (Biotek).
On the technique in general: ATP-based viability assays read luminescence as a measure of living cells.

Data set [2] has as its system ARE (Nrf2 pathway). The data set is described as follows: ARE-Gluc luciferase reporter (normalized to SV40-Vluc). As to conditions: for ARE activity: U87, CINN 100, FUM 50 μM, SULF 5 μM, FIG. 12C. The data set is classed as cell-based, human. From the text: DNA expression constructs: ARE reporter was designed and generated based on our previously published reporter for monitoring of the transcription factor Nuclear Factor Kappa B (NFkB). NFkB TRE elements were removed and replaced with four copies of the ARE enhancer sequence. This reporter consists of a CSCW lentivirus vector in which we have introduced two copies of the 1.2 kb chicken beta-globin (HS4) insulator elements, a TATA box acting as a minimal promoter upstream of the secreted Gaussia luciferase (Gluc). pcDNA3-HA2-Keap1 (Addgene plasmid #21556) and pcDNA3-HA2-Keap1 delta BTB (Addgene plasmid #21593) were a gift from Yue Xiong^2. pHAGE DN Cullin 3 (DN-CUL3) was a gift from Stephen Elledge (Addgene plasmid #41913). Constructs expressing constitutively active Gluc, Firefly luciferase (Fluc) and Vargula luciferase (Vluc) were previously describe. MISSION shRNA Bacterial Glycerol Stocks for Keap1 as well as a non-target shRNA were obtained from Sigma. Transfection of plasmid DNA was performed using Lipofectamine 2000 (Invitrogen) as per manufacturer's guidelines. Lentivirus packaging and titration was performed in 293T cells by the MGH viral vector core facility following standard protocols. Keap1 mutant C151S plasmid was kindly provided by Dr. Wooyoung Hur.
Luciferase assay: Coelenterazine (20 μM; Nanolight), The Gluc substrate was added to a 25 μL aliquot of conditioned medium and photon counts were measured using a luminometer. Similarly, the secreted Vluc activity was measured by adding its substrate vargulin (5 ng/mL; Nanolight). Cells stably expressing Gluc under the ARE enhancer sequence and Vluc under the constitutively active SV40 minimal promoter were used to determine the ARE reporter activity. The normalized Gluc/Vluc ratio was used as a marker for ARE activation.

The nature of data set [3]: Solubility in aqueous media. The data set is classed as physicochemical.
Data set [4] addresses T1, BRD4 (Homo sapiens, UniProt O60885). The data set is described as follows: BRD4 degradation in glioma cells. The data set is classed as cell-based. Further details: endogenous in cells. As to conditions: FIG. 15. How it is done: (§2) Immunoblotting and Immunoprecipitation analysis: Antibodies against PDI, GAPDH, HA-tag, Ubiquitin, Keap1 and beta-actin (Cell Signaling) as well as secondary Horseradish peroxidase (HRP) conjugated antibodies: sheep anti-mouse IgG-HRP and donkey antirabbit IgG-HRP (Amersham Pharmacia Biotech) were used in this study. For protein expression analysis, cells were lysed in RIPA buffer (150 mM NaCl, 50 mM TRIS, pH 8.0, 1% NP-40, 0.5% deoxycholate, 0.1% SDS) supplemented with 1× protease inhibitors cocktail (Roche). Proteins were quantified using a Bradford protein determination assay (Bio-Rad) followed by electrophoresis in 10% NuPAGE Bis-Tris gels (Life Technologies) and transfer to nitrocellulose membranes (Bio-Rad). Membranes were incubated overnight with antibodies in 1-5% non-fat milk powder in PBS/0.5% TWEEN. Proteins were detected with SuperSignal West Pico Chemiluminescent Substrate (Pierce). For immunoprecipitation assays, cells were lysed in RIPA buffer supplemented with protease inhibitors and 2 mM N-ethylmaleimide. Cell lysates were pre-cleared with protein A agarose beads (Cell Signaling) and incubated with anti-HA antibody with gentle rocking overnight at 4° C. followed by incubation with protein A agarose beads and subsequent washing and elution steps. Electrophoresis, transfer and immunoblot analysis was performed as described above.

The target in data set [5] is T1, BRD4. The data set is described as follows: BRD4 degradation in breast cancer cells. As to conditions: FIG. 16. Further details: endogenous in cells. The data set is classed as cell-based. How it is done: as §2
Data set [6] concerns the target T2, BRD4 (Mus musculus, UniProt Q9ESU6).
T2 construct: CT2A glioma cells expressing mCherry fluorescent protein were implanted in the brain of mice; from tissue; host or cells: CT2A glioma tumour removed from mouse brain
The data set is described as follows: BRD4 degradation in mouse glioma model in vivo (Western blotting). Further details: species or system mice. To be noted: CT2A glioma; intratumoral, intravenous and intranasal routes; 24 hrs after last injection. The procedure:
CT2A glioma cells expressing mCherry fluorescent protein were implanted in the brain of mice and 2 weeks later, once tumor reached a significant size, mice were injected with 0.7 mg/kg body weight of OBT-JQ1 using different injection routes (1) direct intratumoral injection (single injection), intravenously (once/day over 3 days) and intranasally (once/day over 3 days, an injection route that typically bypasses the blood-brain barrier). 24 hrs after the last injection, brains were removed and the tumor was lysed and analyzed by Western blotting for BRD4 and mCherry and actin loading controls.

Data set [7] has as its target T1, BRD4. In words: OBT-JQ1 PROTAC mechanism (proteasome block, Keap1/CUL3 knockdown). Details: endogenous in cells. The data set is classed as cell-based. The procedure: as §2
In data set [8] the test system is cancer cells. In words: Cancer cell death with OBT, JQ1, OBT-JQ1. The data set is classed as cell-based. As to conditions: FIG. 23. How it is done: as §1
Data set [9] has as its target T1, BRD4. In words: BRD4 degradation in patient-derived breast cancer cells. The data set is classed as cell-based. Further details: endogenous in cells; host or cells: patient-derived glioma cells; patient-derived breast cancer cells. As to conditions: FIG. 18. The procedure: as §2
Data set [10] concerns the target T1, BRD4. The data set is described as follows: BRD4 degradation in patient-derived glioma cells. As to conditions: FIG. 17. Details: endogenous in cells; host or cells: patient-derived glioma cells; patient-derived breast cancer cells. The data set is classed as cell-based. How it is done:
as §2

Consider `O=CC=Cc1ccccc1` [cinnamaldehyde], for which the U87 cell viability result in [1] was “moderate decrease”. The ARE activity result in [2] was “increased ARE activity”.
For `COC(=O)[C@]12CCC(C)(C)C[C@H]1[C@H]1C(=O)C=C3[C@@]4(C)C=C(C#N)C(=O)C(C)(C)[C@@H]4CC[C@@]3(C)[C@]1(C)CC2` [CDDO-Me, 2-cyano-3,12-dioxoolean-1,9-dien-28-oic acid-methyl ester], the cell viability entry in data set [1] (higher doses, U87 cells, FIG. 12B) was “marked decrease”. The ARE-Gluc reporter activity result in data set [2] (U87 and MDA-MB-231 cells, FIG. 12A) was “increased reporter activity”.
For the compound `COc1cc(O)c(O)cc1C(/C=C/c1ccccc1)SCCO` (stereo not drawn) [AF20a, (E)-4-(1-((2-hydroxyethyl)thio)-3-phenylallyl)-5-methoxybenzene-1,2-diol], the “solubility compared to OBT” value in data set [3] is given as “overcome the limited solubility of OBT”.
Regarding `C[S+]([O-])CCCCN=C=S` (stereo not drawn) [sulforaphane], the U87 cell viability entry in data set [1] is listed as “moderate decrease”. The ARE activity entry in [2] was “increased ARE activity”.
Take `CCOC(=O)/C=C/C(=O)OCC` [diethyl fumarate]: the U87 cell viability result in [1] is on record as “moderate decrease”. For the same compound, the ARE activity entry in data set [2] is reported as “increased ARE activity”.
Turning to `COc1cc(O)c(O)cc1/C=C/C(SCCO)c1ccccc1` (stereo not drawn) [AF20b, (E)-4-(3-((2-hydroxyethyl)thio)-3-phenylprop-1-en-1-yl)-5-methoxybenzene-1,2-diol], in data set [3], the “solubility compared to OBT” value was “overcome the limited solubility of OBT”.
In the case of `COC1=CC(=O)C(OCC(=O)NCCCOCCOCCOCCCNC(=O)CC2N=C(c3ccc(Cl)cc3)c3c(sc(C)c3C)-n3c(C)nnc32)=C/C1=C/C=C/c1ccccc1` (stereo not drawn) [OBT-JQ1, 2-(4-(4-chlorophenyl)-2,3,9-trimethyl-6H-thieno[3,2-f][1,2,4]triazolo[4,3-a][1,4]diazepin-6-yl)-N-(1-(((Z)-4-methoxy-6-oxo-3-((E)-3-phenylallylidene)cyclohexa-1,4-dien-1-yl)oxy)-2-oxo-7,10,13-trioxa-3-azahexadecan-16-yl)acetamide], the BRD4 degradation entry in data set [4], in data set [5], in data set [9] and in data set [10] was “promotes targeted degradation of BRD4” each time. Further, the “BRD4 degradation in brain tumors” value in data set [6] is recorded as “induces BRD4 degradation; also recorded: efficient BRD4 degradation”. Further, the “effect of OBT-JQ1 when proteasome is blocked” value in [7] (FIG. 20) was “reverses the effect”. In addition, the “PROTAC activity in Keap1 and CuL3 knockdown” value in [7] (FIG. 21) is given as “retains PROTAC activity”. Moreover, the “induced cell death in presence of antioxidant NAC” value in [8] was “not protected”.
